From ChEMBL document CHEMBL1201862, “PubChem BioAssay data set” (2004)
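All cell lines were grown in 96-well plates and treated with compound for 48 hours. GI50 marks 50% less growth.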 Calls of active or inactive are those of the source. Cut-off read from the data, not from the text of the source: active = GI50 up to about 1.1 µM and inactive = higher.

What was measured:
Experiment in all cases: NCI anticancer screen, dose series, 48 h
786-0 = test system: 786-0
KM12 = test system: KM12
OVCAR-3 = test system: OVCAR-3
SK-MEL-2 = test system: SK-MEL-2
PC-3 = test system: PC-3
DU-145 = test system: DU-145
M14 = test system: M14
Malme-3M = test system: Malme-3M
HL-60 = test system: HL-60
Hs-578T = test system: Hs-578T
UACC-62 = test system: UACC-62
HT-29 = test system: HT-29
MOLT-4 = test system: MOLT-4
MDA-MB-231 = test system: MDA-MB-231
HCC 2998 = test system: HCC 2998
U-251 = test system: U-251
SK-MEL-28 = test system: SK-MEL-28
MDA-N = test system: MDA-N
CCRF-CEM = test system: CCRF-CEM
ACHN = test system: ACHN

Measured: GI50

NCC[Se][Se]CCN
inactive: 786-0 14 µM | KM12 8.05 µM | OVCAR-3 13.9 µM | SK-MEL-2 7.57 µM | PC-3 10.9 µM | DU-145 11.6 µM | M14 3.83 µM | Malme-3M 11.9 µM | HL-60 1.8 µM | Hs-578T 12.4 µM | UACC-62 17.3 µM | HT-29 10 µM | MOLT-4 5.25 µM | MDA-MB-231 12.8 µM | HCC 2998 11.9 µM | U-251 7.41 µM | SK-MEL-28 13.3 µM | MDA-N 10.9 µM | CCRF-CEM 5.12 µM | ACHN 10 µM

CCCCS(=O)(=O)CCC(N)C(=O)O (stereo not given)
inactive: 786-0 > 100 µM | KM12 > 100 µM | OVCAR-3 > 100 µM | SK-MEL-2 > 100 µM | PC-3 > 100 µM | DU-145 > 100 µM | M14 > 100 µM | Malme-3M > 100 µM | HL-60 > 100 µM | Hs-578T > 100 µM | UACC-62 > 100 µM | HT-29 > 100 µM | MOLT-4 > 100 µM | MDA-MB-231 > 100 µM | HCC 2998 > 100 µM | U-251 > 100 µM | SK-MEL-28 > 100 µM | MDA-N > 100 µM | CCRF-CEM > 100 µM | ACHN > 100 µM

O=C1OC(c2ccc([N+](=O)[O-])cc2)=N/C1=C\c1ccc(Cl)cc1
inactive: 786-0 > 100 µM | KM12 > 100 µM | OVCAR-3 > 100 µM | SK-MEL-2 > 100 µM | PC-3 > 100 µM | DU-145 > 100 µM | M14 > 100 µM | Malme-3M > 100 µM | HL-60 > 100 µM | Hs-578T > 100 µM | UACC-62 > 100 µM | HT-29 > 100 µM | MOLT-4 > 100 µM | MDA-MB-231 > 100 µM | HCC 2998 > 100 µM | U-251 > 100 µM | SK-MEL-28 > 100 µM | MDA-N > 100 µM | CCRF-CEM > 100 µM | ACHN > 100 µM

N#CCC(=O)N/N=C(\CCN1CCCC1)CC(c1ccccc1)c1c(O)c2ccccc2oc1=O (stereo not given)
inactive: 786-0 > 100 µM | KM12 > 63.7 µM | OVCAR-3 65.3 µM | SK-MEL-2 > 61.1 µM | PC-3 64.7 µM | DU-145 > 100 µM | M14 98.6 µM | Malme-3M 60 µM | HL-60 24.5 µM | Hs-578T 63.7 µM | UACC-62 > 80.2 µM | HT-29 > 88.7 µM | MOLT-4 24.5 µM | MDA-MB-231 40.3 µM | HCC 2998 21.2 µM | U-251 82.6 µM | SK-MEL-28 > 100 µM | MDA-N 58.6 µM | CCRF-CEM 39.4 µM | ACHN > 60.4 µM

CC1(C)N=C(/C(C#N)=[N+](/[O-])C(=O)c2ccccc2)C(C)(C)N1O
inactive: 786-0 > 100 µM | KM12 > 100 µM | OVCAR-3 > 100 µM | SK-MEL-2 > 100 µM | PC-3 > 100 µM | DU-145 > 100 µM | M14 > 100 µM | Malme-3M > 100 µM | HL-60 > 100 µM | Hs-578T > 100 µM | UACC-62 > 100 µM | HT-29 > 100 µM | MOLT-4 > 100 µM | MDA-MB-231 > 100 µM | HCC 2998 > 100 µM | U-251 > 100 µM | SK-MEL-28 > 100 µM | MDA-N > 100 µM | CCRF-CEM > 100 µM | ACHN > 100 µM

CCOC(=O)c1ccc(NC(=O)O/N=C(/Cl)CC)cc1
inactive: 786-0 5.85 µM | KM12 18.4 µM | OVCAR-3 1.83 µM | SK-MEL-2 16.4 µM | PC-3 18.8 µM | DU-145 17.4 µM | M14 2.14 µM | Malme-3M 4.56 µM | HL-60 2.21 µM | Hs-578T 22.8 µM | UACC-62 21 µM | HT-29 18.4 µM | MOLT-4 2 µM | MDA-MB-231 19.6 µM | HCC 2998 18.1 µM | U-251 17.8 µM | SK-MEL-28 16.4 µM | MDA-N 16.8 µM | CCRF-CEM 1.82 µM | ACHN 9.18 µM

COc1cc2c(cc1O)CCN(C)[C@H]2Cc1ccc(Oc2c(O)c(OC)cc3c2C[C@H]2c4c(c(OC)c(OC)c(OC)c4-3)CCN2C)cc1 [THALIFABERIDINE]
inactive: 786-0 4.53 µM | KM12 4.11 µM | OVCAR-3 5.36 µM | SK-MEL-2 6.82 µM | PC-3 4.31 µM | DU-145 6.34 µM | M14 5.4 µM | Malme-3M 7.85 µM | HL-60 4.24 µM | Hs-578T 5.3 µM | UACC-62 3.97 µM | HT-29 2.85 µM | MOLT-4 3 µM | MDA-MB-231 3.04 µM | HCC 2998 3.08 µM | U-251 4.38 µM | SK-MEL-28 6.56 µM | MDA-N 4.94 µM | CCRF-CEM 2.92 µM | ACHN 5.71 µM

Fc1ccc(C(OCCN2CCC3CCC(C2)N3CCCc2ccccc2)c2ccc(F)cc2)cc1 (stereo not given)
inactive: 786-0 2.41 µM | KM12 3.11 µM | OVCAR-3 3.55 µM | SK-MEL-2 3.48 µM | PC-3 2.98 µM | DU-145 8 µM | M14 2.1 µM | Malme-3M 2.29 µM | HL-60 2.12 µM | Hs-578T 4.58 µM | UACC-62 5.75 µM | HT-29 3.3 µM | MOLT-4 2.58 µM | MDA-MB-231 3.87 µM | HCC 2998 2.08 µM | U-251 4.33 µM | SK-MEL-28 2.52 µM | MDA-N 3.27 µM | CCRF-CEM 3.01 µM | ACHN 5.6 µM

O=C(NNC(=S)NC1CCCCC1)C12CC3CC(CC(C3)C1)C2
inactive: 786-0 61.8 µM | KM12 > 100 µM | OVCAR-3 > 100 µM | SK-MEL-2 > 100 µM | PC-3 > 100 µM | DU-145 > 100 µM | M14 > 100 µM | Malme-3M > 100 µM | HL-60 > 100 µM | Hs-578T > 100 µM | UACC-62 > 100 µM | HT-29 > 100 µM | MOLT-4 > 100 µM | MDA-MB-231 > 100 µM | HCC 2998 > 100 µM | U-251 > 100 µM | SK-MEL-28 > 100 µM | MDA-N > 100 µM | CCRF-CEM > 100 µM | ACHN > 100 µM

CC(C)/C(Cl)=N\OC(=O)Nc1ccc(F)cc1
inactive: 786-0 5.18 µM | KM12 16.6 µM | OVCAR-3 8.22 µM | SK-MEL-2 17.7 µM | PC-3 17.4 µM | DU-145 16.3 µM | M14 4.06 µM | Malme-3M 1.95 µM | HL-60 1.55 µM | Hs-578T 24.7 µM | UACC-62 16 µM | HT-29 2.04 µM | MOLT-4 1.66 µM | MDA-MB-231 3.47 µM | HCC 2998 15.7 µM | U-251 15.6 µM | SK-MEL-28 5.81 µM | MDA-N 8.26 µM | ACHN 3.55 µM
active: CCRF-CEM 0.916 µM

CC(C)(Br)C(=O)N1CCN(C(c2ccccc2)c2ccccc2)CC1
inactive: 786-0 > 100 µM | KM12 16.2 µM | OVCAR-3 19.8 µM | SK-MEL-2 > 100 µM | PC-3 50.1 µM | DU-145 50.6 µM | M14 > 100 µM | Malme-3M > 100 µM | HL-60 21.5 µM | Hs-578T 22.6 µM | UACC-62 > 100 µM | HT-29 39.5 µM | MOLT-4 30.1 µM | MDA-MB-231 > 100 µM | HCC 2998 > 100 µM | U-251 > 100 µM | SK-MEL-28 > 100 µM | MDA-N > 100 µM | CCRF-CEM 49.2 µM | ACHN > 100 µM

Cc1ccc(S(=O)(=O)N/N=C2\CC3C4CCC3C2C4)cc1 (stereo not given)
inactive: 786-0 > 100 µM | KM12 > 100 µM | OVCAR-3 > 100 µM | SK-MEL-2 > 100 µM | PC-3 > 100 µM | DU-145 > 100 µM | M14 > 100 µM | Malme-3M > 100 µM | HL-60 > 100 µM | Hs-578T > 100 µM | UACC-62 > 100 µM | HT-29 > 100 µM | MOLT-4 > 100 µM | MDA-MB-231 > 100 µM | HCC 2998 > 100 µM | U-251 > 100 µM | SK-MEL-28 > 100 µM | MDA-N > 100 µM | CCRF-CEM > 100 µM | ACHN > 100 µM

CCOC(=O)N1CCN(Cc2cc(=O)n3cc(C)ccc3n2)CC1
inactive: 786-0 > 100 µM | KM12 > 100 µM | OVCAR-3 > 100 µM | SK-MEL-2 > 100 µM | PC-3 > 100 µM | DU-145 > 100 µM | M14 > 100 µM | Malme-3M > 100 µM | HL-60 > 100 µM | Hs-578T > 100 µM | UACC-62 > 100 µM | HT-29 > 100 µM | MOLT-4 > 100 µM | MDA-MB-231 > 100 µM | HCC 2998 > 100 µM | U-251 > 100 µM | SK-MEL-28 > 100 µM | MDA-N > 100 µM | CCRF-CEM > 100 µM | ACHN > 100 µM

Nc1cc2c3c(cccc3c1)C(=O)N(c1ccc(OCCN3CCCCC3)cc1)C2=O
inactive: 786-0 16.9 µM | KM12 20 µM | OVCAR-3 16.7 µM | SK-MEL-2 17.2 µM | PC-3 17.4 µM | DU-145 16.9 µM | M14 15.5 µM | Malme-3M 14.5 µM | HL-60 4.89 µM | Hs-578T 27.7 µM | UACC-62 19.1 µM | HT-29 10.2 µM | MOLT-4 12.1 µM | MDA-MB-231 14.2 µM | HCC 2998 19.9 µM | U-251 22 µM | SK-MEL-28 22.2 µM | MDA-N 18.5 µM | CCRF-CEM 21.2 µM | ACHN 15.9 µM
